Patent publication US6903135B2, “Methods and products related to 16-HETE analogs” (Board of Regents, The University of Texas System, priority 1998, dated 2005)
Marks after values point to notes of the source that are not given here. Values belong to the compound of their own block, whether it stands above or below them.

How the values were obtained:
Format in all cases: cell-based
[1] = system: neutrophils in diluted human blood; test: fMLP-induced neutrophil aggregation in diluted human blood; conditions: for Aggregation (percent of inhibition from HETE untreated cells): 1 µM compound, N = 4; for inhibition of neutrophil aggregation: no concentration given
Experimental: (§1) Stimulated neutrophil aggregation and oxygen free radical release were examined in whole human blood using a whole-blood aggregometer-chemiluminometer (Chronolog, Haverton, Pa.) as described in Bednar et al. J. Thromb. Thrombol. 1, 179-185 (1995). Briefly, blood samples containing heparin (1 U/ml) as the anticoagulant were diluted in HBSS in proportion 1 to 9. Diluted blood aliquots (1 ml) were stirred (400 rpm) in a prewarmed (37° C.) siliconized cuvette containing cytochalasin b (5 μg/ml) and luminol (in 8 μl DMSO, 500 μM final concentration) and the test HETE (concentration 0.01 to 10 μM) for 10 min. Neutrophils were stimulated with a submaximal dose of fMLP (5×10^−7M final concentration). The aggregation and chemiluminescence were simultaneously measured as changes of impedance and luminescence, respectively. The fMLP-induced chemiluminescence was calculated as the peak height of the reaction.
The methods were performed as described above in Example 3.

basal human neutrophils = test: Basal neutrophil adhesion to gelatin matrix
Experimental: (§2) Venous blood (60-70 ml) was collected from four healthy, normal volunteers into syringes containing heparin (1 U/ml). Polymorphonuclear leukocytes (PMNs) were isolated by a histopaque density gradient technique as previously described in Liu et al., Adhesion, Its role in Inflammatory Disease, Freeman and Co., New York, 1992, pp 189-192. Briefly, blood aliquots (6 ml) were layered over two layers (3 ml) of histopaque 1077 and 1119 in a conical centrifuge tube. The sample was then subjected to centrifugation at 100×g for 30 minutes at room temperature and the top layer, containing the neutrophils, was carefully collected. Hypotonic lysis was used to separate out the red blood cells. The neutrophils were then isolated from the sample by centrifugation (2000×g) and suspended in Hanks balanced salt solution (HBSS) containing 1 mM Ca^+ and 0.8 mM Mg^+ for studies involving arachidonic acid metabolism, and in M199 (with 1% BSA) for neutrophil adhesion assays. Total cells were counted using a hemocytometer and leukocytes were counted after staining with Wright-Giemsa stain. For each experiment, the cell preparations used contain ≧97% neutrophils, having ≧95% viability as determined by a trypan blue exclusion assay.
(§3) Isolated neutrophils were resuspended in M199 containing 1% BSA with a final concentration of 3×10^6 cells per ml. Cells suspensions (1 ml) were incubated with or without a test compound, 16(S)-HETE, 16(R)-HETE, or 20-HETE (concentrations 0.01 to 10 μM) for 10 min and then placed into gelatin-coated wells and further incubated for 20 min at 37° C. The wells were washed three times with 0.5 ml of solution M199 to remove non-adherent cells. The adherent cells were then removed by addition of 0.4 ml of 0.25% trypsin-EDTA in 0.1 M PBS to the gelatin-coated wells and incubation for 10 min at 37° C. The incubates were transferred and the wells were washed with 0.1 ml of M199 solution. The amount of cells in combined solutions was counted. In some experiments, the adhesion of neutrophils was stimulated by addition of 1 U/ml of thrombin to neutrophil suspension immediately prior to the transfer of cells to the wells. Experiments were performed in duplicates for each concentration of HETE. The inhibition of adhesion was expressed as percent of cells remaining in suspension (non-adherent) relative to control. The range of adherent PMNs in control incubations was 6 to 23%. This was increased two-fold in the presence of thrombin.

[2] = system: thrombin-stimulated human neutrophils; test: Thrombin-stimulated neutrophil adhesion to gelatin matrix
Experimental: as §2
as §3, with “In some experiments, the adhesion of neutrophils was stimulated by addition of 1 U/ml of thrombin to neutrophil suspension immediately prior to the transfer of cells to the wells. Experiments were performed in duplicates for each concentration of HETE.” left out, “The range of adherent PMNs in control incubations was 6 to 23%. This was increased two-fold in the presence of thrombin.” left out

[3] = system: neutrophils in diluted human blood; test: fMLP-stimulated oxygen free radical release (luminol chemiluminescence) in diluted human blood; conditions: for OFR Release (percent of inhibition from HETE untreated cells): 1 mM [sic] HETE, fMLP 5×10^−7 M, chemiluminescence, N = 3 to 4
Experimental: as §1, with “Diluted blood aliquots (1 ml) were stirred (400 rpm) in a prewarmed (37° C.) siliconized cuvette containing cytochalasin b (5 μg/ml) and luminol (in 8 μl DMSO, 500 μM final concentration) and the test HETE (concentration 0.01 to 10 μM) for 10 min.” left out

human neutrophils = test: Agonist activity on human neutrophils; conditions: concentrations ≦20 μM
[4] = system: neutrophils in diluted human blood; test: fMLP-induced neutrophil aggregation in diluted human blood; conditions: 1 mM [sic] HETE, fMLP 5×10^−7 M, N = 3 to 4
[5] = system: LTB4 synthesis in neutrophils; test: Neutrophil LTB4 production stimulated by fMLP; conditions: 1 μM, 10 min preincubation, fMLP 5×10^−7 M; fMLP alone 92.8±27.1, unstimulated 49.9±24.2; n=4
Experimental: 16(R)-HETE (0.01-1.0 μM) was preincubated for 10 minutes with the neutrophil suspension (3×10^6/ml) prior to the addition of formyl-methionyl-leucyl-phenylalanine (fMLP). Samples were then incubated for an additional 10 minutes with 5×10^−7M fMLP. All incubations took place at 37° C. Plasma samples for the measurement of LTB4 were collected by centrifugation of the whole blood samples at 1200 rpm for 15 minutes. Samples were stored at […] until analyzed. The plasma was then acidified to pH3 with 1M Hcl. The plasma was then placed on C2 reverse phase columns (Amprep for Amersham Corp., Arlington Heights, Ill.) to extract LTB4. LTB4 was then measured using the Biotrak LTB4 enzyme immunoassay system (Amersham Corp., Arlington Heights, Ill.). All standards and samples were performed in duplicate. Following incubation, all samples were read at 450 nm and the LTB4 concentration in each sample was determined following the generation of a standard curve. LTB4 concentration was expressed as picograms LTB4 per 1000 neutrophils.

platelets [6] = test: ADP-induced platelet aggregation in diluted whole blood; conditions: 1 μM, ten minute incubation, ADP 5 μM, n=3, mean±sem
Excerpt: (§4) Platelet aggregation was examined in diluted whole blood using a Chronolog whole blood aggregometer (Havertown, Pa.) as previously described (Bednar, M. M.; Dooley, R. H.; Zamani, M.; Howard, D. B.; and Gross, C. E. Neutrophil and platelet activity and quantification following delayed t-PA therapy in a rabbit model of thromboembolic stroke. J. Thromb. Thrombol. 1:179-185 (1995). Briefly, whole blood was collected in 3.8% sodium citrate (9:1, v/v) and was subsequently diluted 50:50 with normal saline. Aggregation was assessed over a 6 minute interval following addition of a submaximal concentration of adenosine diphosphate (ADP, 5 μM: Sigma Corporation, St. Louis, Mo.). Aggregation was then repeated following a ten minute incubation with either 1 μM or 16(R)-HETE or 16(S)-HETE and expressed as the change in impedance as a percentage of the baseline value. Adenosine triphosphate (ATP) release was simultaneously measured from ADP-stimulated platelets in the Chronolog whole blood aggregometer using the Chrono-Lume luminescent agent (firefly luciferin-luciferase). Samples were compared to chemiluminescence obtained from ATP standards following the addition of luciferin-luciferase.

platelets [7] = test: ATP release from ADP-stimulated platelets; conditions: 1 μM, ADP 5 μM, n=3, mean±sem
Excerpt: as §4

[8] = concentrations of one micromolar, four observations per compound

Compound: CCCCC(O)/C=C\C/C=C\C/C=C\C/C=C\CCCC(=O)NS(C)(=O)=O [16(R)-HETE sulfonimide, N-methylsulfonyl-16-hydroxyeicosa-5,8,11,14-(Z)-tetraenamide]
- Aggregation (percent of inhibition from HETE untreated cells) [1]: 47.6 +/− 20.5* percent
- inhibition of fMLP-induced neutrophil aggregation [1, 8]: slightly lower activity than 16-HETE (R)

Compound: 5,6,14,15-Dehydro-8,9,11,12-tetrahydro-16(R)-HETE
- Aggregation (percent of inhibition from HETE untreated cells) [1]: 79.4 +/− 12.2%

Compound: CCCC[C@@H](O)CCCCCCCCCCCCCCC(=O)O [5,6,8,9,11,12,14,15-octahydro-16(R)-HETE]
- Aggregation (percent of inhibition from HETE untreated cells) [1]: 122.8 +/− 15.4%

Compound: CCCC[C@@H](O)/C=C\CCCCCCC/C=C\CCCC(=O)O [8,9,11,12-tetrahydro-16(R)-HETE]
- Aggregation (percent of inhibition from HETE untreated cells) [1]: 71.1 +/− 10.3* percent

Compound: O=C(O)CCC/C=C\C/C=C\C/C=C\C/C=C\CCCCCO [20-HETE]
- activity in assay of neutrophil adhesion (basal human neutrophils; concentrations up to 1 μM): no activity
- inhibition of neutrophil adhesion, basal conditions (basal human neutrophils; concentrations ≦10 μM): did not inhibit
- inhibition of neutrophil adhesion, stimulated conditions ([2]; concentrations ≦10 μM): did not inhibit
- inhibition of fMLP-induced neutrophil aggregation ([1]; concentrations of ≦10 μM): not active
- activity in assay of neutrophil aggregation ([1]; concentrations up to 1 μM): no activity
- inhibition of neutrophil aggregation [1]: neither 20-HETE nor 15-HETE inhibited
- OFR Release (percent of inhibition from HETE untreated cells) [3]: 3.9 ± 13.4%
- activity in assay of luminol chemiluminescence ([3]; concentrations up to 1 μM): no activity
- agonist activity on human neutrophils (human neutrophils): no detectable agonist activity
- Aggregation (percent of inhibition from HETE untreated cells) [4]: 8.1 ± 2.6%

Compound: CCCCC[C@H](O)/C=C/C=C\C/C=C\C/C=C\CCCC(=O)O [15-HETE]
- inhibition of neutrophil aggregation [1]: neither 20-HETE nor 15-HETE inhibited

- IC50 ([1]; Homo sapiens, Neutrophil, fMLP 5×10^−7 M, read-out: IC50, inhibition of fMLP-induced neutrophil aggregation): 1200 nM
Compound: CCCC[C@@H](O)C=CCC=CCC=CCC=CCCCC(=O)O [16(R)-HETE, 16(R)-hydroxy-5,8,11,14-eicosatetraenoic acid]
- inhibition at 1 µM (basal human neutrophils; Homo sapiens, Neutrophil, 1 μM, 10 min preincubation, unstimulated neutrophils, gelatin matrix): 73 ± 11%
- inhibition of neutrophil adhesion to gelatin (basal human neutrophils; preincubation with 10 μM): completely inhibited
- inhibition at 1 µM ([2]; Homo sapiens, Neutrophil, 1 μM, thrombin 1 U/ml, 3×10^6 cells/ml): 50 ± 4%
- Aggregation (percent of inhibition from HETE untreated cells) [1]: 42.0 ± 11.0%
- inhibition of fMLP-induced neutrophil aggregation [1, 8]: inhibited
- OFR Release (percent of inhibition from HETE untreated cells) [3]: 8.9 ± 5.1%
- LTB4 synthesis [5]: 17.0±3.2 pg/1000 neutrophils
- ADP-induced platelet aggregation, % of the control value (platelets [6]): 85.9±21.4%
- ATP release from ADP-stimulated platelets, % of the control sample (platelets [7]): 99.3±0.7%
- Aggregation (percent of inhibition from HETE untreated cells) [4]: 42.0 ± 11.0%

Compound: C(1)-hydroxyl 16-HETE
- Aggregation (percent of inhibition from HETE untreated cells) [1]: 84.6 +/− 11.4%

Compound: CCCC[C@H](O)/C=C\C/C=C\C/C=C\C/C=C\CCCC(=O)O [16(S)-HETE]
- inhibition of basal neutrophil adhesion (basal human neutrophils; 1 μM, 10 min preincubation, unstimulated neutrophils, gelatin matrix): 39±8%
- inhibition of thrombin-stimulated neutrophil adhesion ([2]; 1 μM, thrombin 1 U/ml, 3×10^6 cells/ml): 40±14%
- inhibition of fMLP-induced neutrophil aggregation ([1]; concentrations of ≦10 μM): not active
- OFR Release (percent of inhibition from HETE untreated cells) [3]: 5.6 ± 16.7%
- ADP-induced platelet aggregation, % of the control value (platelets [6]): 101.3±14.0%
- ATP release from ADP-stimulated platelets, % of the control sample (platelets [7]): 108.0±6.8%
- Aggregation (percent of inhibition from HETE untreated cells) [4]: 7.0 ± 3.5%
